The record followed here is ChEMBL document CHEMBL6182856, “Novel one-/two-photon excited carbazole/quinolinium photosensitizers manifest nanomolar and hypoxia-resistant tumor photodynamic therapy by accelerating apoptosis, ferroptosis, and autophagy” (Eur J Med Chem, 2025).

The source made the active and inactive calls. The rule behind the calls is not given here.

A short description of test [1]: Photosensitizing ability of the compound in methanol assessed as singlet oxygen production by measuring quantum yield measured upon irradiation by DPBF based assay. In kind it is functional.
The nature of test [2]: Phototherapeutic index, ratio of IC50 for cytotoxicity against human A549 cells measured under normoxia conditions to IC50 for phototoxicity against human A549 cells measured under normoxia conditions and after one-photon excitation upon irradiation with light at 520 nm, 200 mW/cm2 for 10 mins. Type of test: functional.
The nature of test [3]: Phototoxicity against human A549 cells assessed as inhibition of cell growth incubated for 24 hrs measured under normoxia conditions and after one-photon excitation upon irradiation with light at 520 nm, 200 mW/cm2 for 10 mins by MTT assay. Particulars: A549, light or radiation study. In kind it is functional, cell-based. A general note: Tetrazolium dyes change colour on reduction, which living cells bring about.

Test [4] concerns 4T1. Put plainly: Cytotoxicity against mouse 4T1 cells assessed as inhibition of cell growth incubated for 24 hrs measured under normoxia conditions by MTT assay. Particulars: 4T1, 24 h. Type of test: functional, cell-based.
Test [5] concerns 4T1. Put plainly: Phototherapeutic index, ratio of IC50 for cytotoxicity against mouse 4T1 cells measured under normoxia conditions to IC50 for phototoxicity against mouse 4T1 cells measured under normoxia conditions and after one-photon excitation upon irradiation with light at 520 nm, 200 mW/cm2 for 10 mins. Type of test: functional.
Test [6] in a line: Phototoxicity against mouse 4T1 cells assessed as inhibition of cell growth incubated for 24 hrs measured under normoxia conditions and after one-photon excitation upon irradiation with light at 520 nm, 200 mW/cm2 for 10 mins by MTT assay. In kind it is functional, cell-based. Particulars: 4T1, light or radiation study.
The nature of test [7]: Phototherapeutic index, ratio of IC50 for cytotoxicity against human HT-29 cells measured under normoxia conditions to IC50 for phototoxicity against human HT-29 cells measured under normoxia conditions and after one-photon excitation upon irradiation with light at 520 nm, 200 mW/cm2 for 10 mins. Type of test: functional.
Test [8] can be described thus: Photosensitizing ability of the compound assessed as superoxide radical production measured upon irradiation by DHE probe based assay. Type of test: functional.
A short description of test [9]: Phototoxicity against human HT-29 cells assessed as inhibition of cell growth incubated for 24 hrs measured under normoxia conditions and after one-photon excitation upon irradiation with light at 520 nm, 200 mW/cm2 for 10 mins by MTT assay. In kind it is functional, cell-based. Particulars: HT-29, light or radiation study.
In test [10] the test system is A549. Put plainly: Cytotoxicity against human A549 cells assessed as inhibition of cell growth incubated for 24 hrs measured under normoxia conditions by MTT assay. In kind it is functional, cell-based. Particulars: A549, 24 h.
A short description of test [11]: Photosensitizing ability of the compound assessed as hydroxyl radical production measured upon irradiation by HPF probe based assay. Type of test: functional.
Test [12] deals with HT-29. The experiment in a line: Cytotoxicity against human HT-29 cells assessed as inhibition of cell growth incubated for 24 hrs measured under normoxia conditions by MTT assay. Particulars: HT-29, 24 h. Type of test: functional, cell-based.

Consider `CCn1c2ccc(N)cc2c2cc(/C=C/c3cc[n+](C)c4ccccc34)ccc21.[I-]`, for which the Activity in test [1] came out at 0.04. Moreover, the figures for the “Ratio IC50” value in [2], in [5] and in test [7] were 10, 5 and 7, respectively. In addition, the IC50 in [3] stood at 2.23 µM; in [4], 20.3 µM; in [6] it was 3.66 µM; in [9], 2.77 µM; in [10], 22.4 µM; in test [12], 19.3 µM. Further, the result in [8] and in test [11] was Active.

For the compound `CCn1c2ccc(/C=C/c3cc[n+](C)c4ccccc34)cc2c2cc([N+](=O)[O-])ccc21.I`, in [1], the Activity came out at 0.13. Besides, the concentration for half-maximal inhibition (IC50) is 4.11 µM in [3]; 20.1 µM in [4]; 4.81 µM in test [6]; 3.55 µM in test [9]; more than 100 µM in [10]; 59.4 µM in test [12]. Also, the “Ratio IC50” value in test [5] is listed as 4; in test [7], 16. Moreover, the outcome in test [8] and in test [11] was Active.

The term IC50 denotes the concentration that inhibits the measured activity by half.
